# Earlier results, collected in patent EP4512398A1, “FLURALANER FOR USE IN METHODS OF TREATMENT AND PREVENTION OF SEA LICE INFESTATION IN FISH” (Bimeda Animal Health Limited, priority 2023, dated 2025).
# Test system: parasites with resistance to organophosphates, pyrethroids and carbamates
# Settings: bio-assays, background statement; cited from earlier work
smiles,measurement,value
"Cc1cc(C2=NOC(c3cc(Cl)cc(Cl)c3)(C(F)(F)F)C2)ccc1C(=O)NCC(=O)NCC(F)(F)F (stereo not shown) [fluralaner, Fluralaner]","efficacy against parasites with resistance to organophosphates, pyrethroids and carbamates",effective
